Article PMC2723765 (Bioorganic & medicinal chemistry, 2009)
Like-named read-outs stand apart in the source and are kept apart here.

What was measured:
CXCR4 [1] = target: CXCR4 (Mus musculus, UniProt P70658); details: read-out: IC50 of ^64Cu-4 binding to mouse splenocytes; constant amount of ^64Cu-4 and increasing concentrations of non-radioactive 4, 1 h; average of three experiments
PET studies = assay type: in vivo, C57BL/6 mice; details: co-injection with excess (50 μg) non-radioactive 4
CXCR4 [2] = target: CXCR4 (Homo sapiens, UniProt P61073); test: Transwell migration assay of Jurkat cells towards SDF-1; assay type: cell-based; details: SDF-1 in lower wells
[3] = cited from earlier work

Sequence of CXCR4 (Homo sapiens, UniProt P61073) (P61073 whole entry): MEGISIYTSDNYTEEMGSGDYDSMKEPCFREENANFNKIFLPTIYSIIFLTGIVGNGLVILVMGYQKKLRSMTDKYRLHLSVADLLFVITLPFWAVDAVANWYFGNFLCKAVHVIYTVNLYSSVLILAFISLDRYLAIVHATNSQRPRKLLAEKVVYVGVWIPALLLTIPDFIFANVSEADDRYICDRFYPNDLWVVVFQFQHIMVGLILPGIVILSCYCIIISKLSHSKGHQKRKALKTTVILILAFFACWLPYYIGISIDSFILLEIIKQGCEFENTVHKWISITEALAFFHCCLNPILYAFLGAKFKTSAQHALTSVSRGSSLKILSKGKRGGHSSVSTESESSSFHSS
Sequence of CXCR4 (Mus musculus, UniProt P70658) (P70658 whole entry): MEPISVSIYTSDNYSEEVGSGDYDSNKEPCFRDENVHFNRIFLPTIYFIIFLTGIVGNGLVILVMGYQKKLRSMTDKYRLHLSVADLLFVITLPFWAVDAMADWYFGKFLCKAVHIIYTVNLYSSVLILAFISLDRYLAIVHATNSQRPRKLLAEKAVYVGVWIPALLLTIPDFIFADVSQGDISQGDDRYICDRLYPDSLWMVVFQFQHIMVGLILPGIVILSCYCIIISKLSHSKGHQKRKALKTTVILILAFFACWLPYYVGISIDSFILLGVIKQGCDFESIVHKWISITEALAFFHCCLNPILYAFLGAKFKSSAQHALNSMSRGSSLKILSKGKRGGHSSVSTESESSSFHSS

For `CC(=O)[O-].CC(=O)[O-].[64Cu+2].c1cc(CN2CCCNCCNCCCNCC2)ccc1CN1CCCNCCNCCCNCC1` [^64Cu-4, [^64Cu]-1′-{1,4-phenylenebis(methylene)}-bis{1,4,8,11-tetraaza-cyclotetradecane}copper acetate], the “Uptake in BM” value (1 h post i.v. injection) was 14 % ID/g, the “Uptake in LN” value (1 h post i.v. injection) was 10 % ID/g and the Uptake in blood (1 h post i.v. injection) was 1.7 % ID/g. It also gave an Uptake in kidneys (1 h post i.v. injection) of 10 % ID/g, an Uptake in liver (1 h post i.v. injection) of 41 % ID/g and an Uptake in muscle (1 h post i.v. injection) of 0.3 % ID/g. The Uptake in spleen (1 h post i.v. injection) was 13 % ID/g, the Accumulation in blood (2 h post injection) was < 1 % ID/g and the Accumulation in liver (2 h post injection) was 49 % ID/g. For the same compound, the “Change of accumulation in spleen, LN, liver and BM” value (6 h post injection) was “slight increase”, the “Change of accumulation in kidneys” value (co-injection of excess (50 μg) non-labeled 4) was “corresponding increase in accumulation” and the “Reduction of accumulation in liver” value (co-injection of excess (50 μg) non-labeled 4, 2 h) was 79%. The “Reduction of accumulation in liver” value (co-injection of excess (50 μg) non-labeled 4, 6 h) was 74%, the “Reduction of accumulation in all immune related organs” value (co-injection of excess (50 μg) non-labeled 4, versus accumulation after 2 or 6 h) was 60–80% and the IC50 (CXCR4 [1]) was 46.9 µM. For the same compound, the “PET: uptake in spleen and liver after blocking” value (PET studies) was “undetectable levels”.

For “SDF-1: chemokine stromal cell-derived factor-1, native ligand for CXCR4”, the “Lowest concentration that induces maximal migration of Jurkat cells” value (CXCR4 [2]) was 100 ng/mL.

For “^99Tc- SDF-1: SDF-1 labeled with ^99Tc, imaging agent for myocardial infarction”, the “Accumulation in infarcted myocardium” value [3] is listed as 0.6 % ID/g and the “Accumulation in normal myocardium” value [3] is listed as 0.1 % ID/g.
